From patent US20040171566A1, “Antisense modulation of p38 mitogen activated protein kinase expression” (priority 1999, published 2004)
In the oligonucleotide strings, read from the 5' end, every base follows the letter of its sugar. An asterisk marks phosphorothioate; unmarked linkages are phosphodiester. Other units and linkages are bracketed, terminal groups are in braces. A string of capitals states the bases alone. e = 2'-O-(2-methoxyethyl) (MOE); [5mC] = 5-methylcytosine; d = 2'-deoxy (DNA)

How the values were obtained:
human p38α mRNA [1] = test: Inhibition of human p38α mRNA expression in Jurkat cells, Northern blot; format: cell-based
Description: The human Jurkat T-cell line (American Type Culture Collection, Manassas, Va.) was maintained in RPMI 1640 growth media supplemented with 10% fetal bovine serum (FBS; Hyclone, Logan, Utah). HUVEC cells (Clonetics, San Diego, Calif.) were cultivated in endothelial basal media supplemented with 10% FBS (Hyclone, Logan, Utah).
Jurkat cells were grown to approximately 75% confluency and resuspended in culture media at a density of 1×10^7 cells/ml. A total of 3.6×10^6 cells were employed for each treatment by combining 360 μl of cell suspension with oligonucleotide at the indicated concentrations to reach a final volume of 400 μl. Cells were then transferred to an electroporation cuvette and electroporated using an Electrocell Manipulator 600 instrument (Biotechnologies and Experimental Research, Inc.) employing 150 V, 1000 μF, at 13 Ω. Electroporated cells were then transferred to conical tubes containing 5 ml of culture media, mixed by inversion, and plated onto 10 cm culture dishes.
Total mRNA was isolated using the RNEASY7 Mini Kit (Qiagen, Valencia, Calif.; similar kits from other manufacturers may also be used), separated on a 1% agarose gel, transferred to HYBOND™-N+ membrane (Amersham Pharmacia Biotech, Piscataway, N.J.), a positively charged nylon membrane, and probed. p38 MAPK probes were made using the Prime-A-Gene7 kit (Promega Corporation, Madison, Wis.), a random primer labeling kit, using mouse p38α or p38β cDNA as a template. A glyceraldehyde 3-phosphate dehydrogenase (G3PDH) probe was purchased from Clontech (Palo Alto, Calif.), Catalog Number 9805-1. The fragments were purified from low-melting temperature agarose, as described in Maniatis, T., et al., Molecular Cloning: A Laboratory Manual, 1989. The G3PDH probe was labeled with REDIVUE™ ^32P-dCTP (Amersham Pharmacia Biotech, Piscataway, N.J.) and Strip-EZ labelling kit (Ambion, Austin, Tex.). mRNA was quantitated by a PhosphoImager (Molecular Dynamics, Sunnyvale, Calif.).
Jurkat cells were grown and treated as described above except the concentration of oligonucleotide was varied as indicated in Table 3. […] Maximum inhibition was approximately 70% with 16500 (SEQ ID NO 17).

human p38β mRNA = test: Human p38β mRNA expression in T-24 cells; details: for % P38β mRNA EXPRESSION: initial screen of human p38α oligonucleotides
human p38α mRNA [2] = test: Human p38α mRNA expression in T-24 cells; details: for % P38α mRNA EXPRESSION: initial screen of human p38α oligonucleotides; for % p38α mRNA EXPRESSION: initial screen of human p38β oligonucleotides
[3] = Jurkat cells electroporated with 10 μM oligonucleotide, Northern blot
[4] = initial screen of human p38β oligonucleotides

In the case of “AACCAGGTGCTCAGGACTCC (antisense eA*eA*e[5mC]*e[5mC]*eA*eG*dG*dT*dG*dC*dT*dC*dA*dG*eG*eA*e[5mC]*eT*e[5mC]*e[5mC]) [ISIS 16500]”, the “% mRNA EXPRESSION” value (human p38α mRNA [1]; [3]) is reported as 63%, the “% mRNA EXPRESSION” value (human p38α mRNA [1]; Jurkat cells, dose 2.5 nM) is reported as 82% and the “% mRNA Inhibition” value (human p38α mRNA [1]; Jurkat cells, dose 2.5 nM) is reported as 18%. The “% mRNA EXPRESSION” value (human p38α mRNA [1]; Jurkat cells, dose 5 nM) was 71%, the “% mRNA Inhibition” value (human p38α mRNA [1]; Jurkat cells, dose 5 nM) was 29% and the “% mRNA EXPRESSION” value (human p38α mRNA [1]; Jurkat cells, dose 10 nM) was 49%. For the same sequence, the “% mRNA Inhibition” value (human p38α mRNA [1]; Jurkat cells, dose 10 nM) was 51%, the “% mRNA EXPRESSION” value (human p38α mRNA [1]; Jurkat cells, dose 20 nM) was 31% and the “% mRNA Inhibition” value (human p38α mRNA [1]; Jurkat cells, dose 20 nM) was 69%. The “Maximum inhibition of p38α mRNA” value (human p38α mRNA [1]; Jurkat cells, dose response) was “approximately 70%”.
In the case of “AAGACCGGGCCCGGAATTCC (antisense eA*eA*eG*eA*e[5mC]*e[5mC]*dG*dG*dG*dC*dC*dC*dG*dG*eA*eA*eT*eT*e[5mC]*e[5mC]) [ISIS 16486]”, the “% mRNA EXPRESSION” value (human p38α mRNA [1]; [3]) is reported as 212%.
For “AATGATGGACTGAAATGGTC (eA*eA*eT*eG*eA*dT*dG*dG*dA*d[5mC]*dT*dG*dA*dA*dA*eT*eG*eG*eT*e[5mC]; antisense) [ISIS 100863]”, the “% P38β mRNA EXPRESSION” value (human p38β mRNA) was 67% and the “% P38α mRNA EXPRESSION” value (human p38α mRNA [2]) was 49%.
For “ACACATGCACACACACTAAC (antisense eA*e[5mC]*eA*e[5mC]*eA*eT*dG*dC*dA*dC*dA*dC*dA*dC*eA*e[5mC]*eT*eA*eA*e[5mC]) [ISIS 16505]”, the “% mRNA EXPRESSION” value (human p38α mRNA [1]; [3]) was 93% and the “% mRNA Inhibition” value (human p38α mRNA [1]; [3]) was 7%.
In the case of “ACAGACGGAGCCGTAGGCGC (antisense eAe[5mC]eAeGeA*d[5mC]*dG*dG*dA*dG*d[5mC]*d[5mC]*dG*dT*dA*eGeGe[5mC]eGe[5mC]) [ISIS 107869]”, the “% p38β mRNA Expression” value (human p38β mRNA; [4]) is reported as 60% and the “% p38α mRNA EXPRESSION” value (human p38α mRNA [2]) is reported as 93%.
For “ACGCTCGGGCACCTCCCAGA (phosphorothioate gapmer, further chemistry not given here) [ISIS 100861]”, the “% P38β mRNA EXPRESSION” value (human p38β mRNA) was 47% and the “% P38α mRNA EXPRESSION” value (human p38α mRNA [2]) was 60%.
In the case of “ACGTTGCTGGGCTTCAGGTC (antisense eAe[5mC]eGeTeT*dG*d[5mC]*dT*dG*dG*dG*d[5mC]*dT*dT*d[5mC]*eAeGeGeTe[5mC]) [ISIS 107874]”, the “% p38β mRNA Expression” value (human p38β mRNA; dose 50 nM, relative to control oligonucleotide = 100%) is reported as 75%, the “% p38β mRNA Expression” value (human p38β mRNA; dose 100 nM, relative to control oligonucleotide = 100%) is reported as 34% and the “% p38β mRNA Expression” value (human p38β mRNA; dose 200 nM, relative to control oligonucleotide = 100%) is reported as 23%. For the same sequence, the “% p38β mRNA Expression” value (human p38β mRNA; [4]) was 61% and the “% p38α mRNA EXPRESSION” value (human p38α mRNA [2]) was 100%.
For “AGCTTCTTCACTGCCACACG (phosphorothioate gapmer, further chemistry not given here) [ISIS 100862]”, the “% P38β mRNA EXPRESSION” value (human p38β mRNA) was 45% and the “% P38α mRNA EXPRESSION” value (human p38α mRNA [2]) was 56%.
In the case of “AGGCACTTGAATAATATTTG (eA*eG*eG*e[5mC]*eA*e[5mC]*dT*dT*dG*dA*dA*dT*dA*dA*eT*eA*eT*eT*eT*eG; antisense) [ISIS 16503]”, the “% mRNA EXPRESSION” value (human p38α mRNA [1]; [3]) is reported as 65%, the “% mRNA EXPRESSION” value (human p38α mRNA [1]; Jurkat cells, dose 2.5 nM) is reported as 74% and the “% mRNA Inhibition” value (human p38α mRNA [1]; Jurkat cells, dose 2.5 nM) is reported as 26%. The “% mRNA EXPRESSION” value (human p38α mRNA [1]; Jurkat cells, dose 5 nM) was 61%, the “% mRNA Inhibition” value (human p38α mRNA [1]; Jurkat cells, dose 5 nM) was 39% and the “% mRNA EXPRESSION” value (human p38α mRNA [1]; Jurkat cells, dose 10 nM) was 53%. The “% mRNA Inhibition” value (human p38α mRNA [1]; Jurkat cells, dose 10 nM) was 47%, the “% mRNA EXPRESSION” value (human p38α mRNA [1]; Jurkat cells, dose 20 nM) was 41% and the “% mRNA Inhibition” value (human p38α mRNA [1]; Jurkat cells, dose 20 nM) was 59%.
With “ATGTTCTTCCAGTCAACAGC (antisense eA*eT*eG*eT*eT*e[5mC]*dT*dT*dC*dC*dA*dG*dT*dC*eA*eA*e[5mC]*eA*eG*e[5mC]) [ISIS 16498]” the “% mRNA EXPRESSION” value (human p38α mRNA [1]; [3]) was 88% and the “% mRNA Inhibition” value (human p38α mRNA [1]; [3]) was 12%.
In the case of “CAGAGAGCCTCCTGGGAGGG (antisense e[5mC]*eA*eG*eA*eG*eA*dG*dC*dC*dT*dC*dC*dT*dG*eG*eG*eA*eG*eG*eG) [ISIS 16489]”, the “% mRNA EXPRESSION” value (human p38α mRNA [1]; [3]) is reported as 149%.
In the case of “CAGCCGCGGGACCAGCGGCG (antisense e[5mC]*eA*eG*e[5mC]*e[5mC]*eG*dC*dG*dG*dG*dA*dC*dC*dA*eG*e[5mC]*eG*eG*e[5mC]*eG) [ISIS 16492]”, the “% mRNA EXPRESSION” value (human p38α mRNA [1]; [3]) is reported as 125%.
“CATTTTCCAGCGGCAGCCGC (antisense e[5mC]*eA*eT*eT*eT*eT*dC*dC*dA*dG*dC*dG*dG*dC*eA*eG*e[5mC]*e[5mC]*eG*e[5mC]) [ISIS 16493]” was tested, and the “% mRNA EXPRESSION” value (human p38α mRNA [1]; [3]) was 101%.
